Test results published in PubChem BioAssay AID1963829 (Molecular Pharmacology Branch, DTP, NCI, 2024).

Tested on: 935938-334-R-J1-PDC complex spheroid viability
Test: Anticancer human tumor 935938-334-R-J1-PDC patient-derived small intestine adenocarcinoma cell line growth inhibition [POLQ]
Settings: for IC50: curve of first compound; for viability, T/C: stronger effect = lower value
Method in brief: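 PDC + HUVEC + MSC complex spheroids; POLQ inhibitors ± partner drugs; top conc. at/near clinical Cmax, else 10 microM (SN-38 1 microM), half-log dilutions; 37 degrees C, 5% CO2.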

[1] = second compound 0.0316 µM, first compound 0.0316 µM
[2] = second compound 0.0316 µM, first compound 0.1 µM
[3] = second compound 0.0316 µM, first compound 0.316 µM
[4] = second compound 0.0316 µM, first compound 1 µM
[5] = second compound 0.0316 µM, first compound 3.16 µM
[6] = second compound 0.0316 µM, first compound 10 µM
[7] = second compound 0.1 µM, first compound 0.0316 µM
[8] = second compound 0.1 µM, first compound 0.1 µM
[9] = second compound 0.1 µM, first compound 0.316 µM
[10] = second compound 0.1 µM, first compound 1 µM
[11] = second compound 0.1 µM, first compound 3.16 µM
[12] = second compound 0.1 µM, first compound 10 µM
[13] = second compound 0.316 µM, first compound 0.0316 µM
[14] = second compound 0.316 µM, first compound 0.1 µM
[15] = second compound 0.316 µM, first compound 0.316 µM
[16] = second compound 0.316 µM, first compound 1 µM
[17] = second compound 0.316 µM, first compound 3.16 µM
[18] = second compound 0.316 µM, first compound 10 µM
[19] = second compound 1 µM, first compound 0.0316 µM
[20] = second compound 1 µM, first compound 0.1 µM
[21] = second compound 1 µM, first compound 0.316 µM
[22] = second compound 1 µM, first compound 1 µM
[23] = second compound 1 µM, first compound 3.16 µM
[24] = second compound 1 µM, first compound 10 µM
[25] = second compound 3.16 µM, first compound 0.0316 µM
[26] = second compound 3.16 µM, first compound 0.1 µM
[27] = second compound 3.16 µM, first compound 0.316 µM
[28] = second compound 3.16 µM, first compound 1 µM
[29] = second compound 3.16 µM, first compound 3.16 µM
[30] = second compound 3.16 µM, first compound 10 µM
[31] = second compound 10 µM, first compound 0.0316 µM
[32] = second compound 10 µM, first compound 0.1 µM
[33] = second compound 10 µM, first compound 0.316 µM
[34] = second compound 10 µM, first compound 1 µM
[35] = second compound 10 µM, first compound 3.16 µM
[36] = second compound 10 µM, first compound 10 µM
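Further: spheroids exposed to drugs for seven days before viability read.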
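Wherever viability, T/C is given: 100% = DMSO vehicle control wells.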

Compound: C#Cc1c(F)ccc2cc(O)cc(-c3ncc4c(N5CC6CCC(C5)N6)nc(OCC56CCCN5CC(F)C6)nc4c3F)c12 (stereo not drawn) + Nc1ccc(C#CCN(C(=O)Cc2ncc(C(F)(F)F)cc2C(F)(F)F)c2ccc(F)cc2)nn1
- IC50 (second compound 0.0316 µM): 5750 nM
- IC50 (second compound 0.1 µM): > 10000 nM
- IC50 (second compound 0.316 µM): 2920 nM
- IC50 (second compound 1 µM): 2850 nM
- IC50 (second compound 3.16 µM): > 10000 nM
- IC50 (second compound 10 µM): 2940 nM
- viability, T/C [1]: 97.5%
- viability, T/C [2]: 104%
- viability, T/C [3]: 84.6%
- viability, T/C [4]: 74.1%
- viability, T/C [5]: 65%
- viability, T/C [6]: 38.4%
- viability, T/C [7]: 97.9%
- viability, T/C [8]: 84.8%
- viability, T/C [9]: 90.4%
- viability, T/C [10]: 97.4%
- viability, T/C [11]: 52.1%
- viability, T/C [12]: 53.6%
- viability, T/C [13]: 83.7%
- viability, T/C [14]: 114%
- viability, T/C [15]: 92%
- viability, T/C [16]: 68.2%
- viability, T/C [17]: 52%
- viability, T/C [18]: 42.1%
- viability, T/C [19]: 81.4%
- viability, T/C [20]: 111%
- viability, T/C [21]: 92.1%
- viability, T/C [22]: 73.4%
- viability, T/C [23]: 48.6%
- viability, T/C [24]: 41.8%
- viability, T/C [25]: 105%
- viability, T/C [26]: 99.6%
- viability, T/C [27]: 66.9%
- viability, T/C [28]: 66.4%
- viability, T/C [29]: 61.1%
- viability, T/C [30]: 67.2%
- viability, T/C [31]: 108%
- viability, T/C [32]: 96.7%
- viability, T/C [33]: 76.2%
- viability, T/C [34]: 63.6%
- viability, T/C [35]: 43%
- viability, T/C [36]: 48.9%

Compound: CC1COCCN1c1cc(C2(O)CC3CCC(C2)O3)c2cnn(-c3ccn[nH]3)c2n1 (stereo not drawn) + Nc1ccc(C#CCN(C(=O)Cc2ncc(C(F)(F)F)cc2C(F)(F)F)c2ccc(F)cc2)nn1
- IC50 (second compound 0.0316 µM): 74.7 nM
- IC50 (second compound 0.1 µM): 171 nM
- IC50 (second compound 0.316 µM): 102 nM
- IC50 (second compound 1 µM): 157 nM
- IC50 (second compound 3.16 µM): 125 nM
- IC50 (second compound 10 µM): 122 nM
- viability, T/C [1]: 71.3%
- viability, T/C [2]: 42.2%
- viability, T/C [3]: 28%
- viability, T/C [4]: 19.2%
- viability, T/C [5]: 15.8%
- viability, T/C [6]: 12.8%
- viability, T/C [7]: 83.8%
- viability, T/C [8]: 62.7%
- viability, T/C [9]: 35.5%
- viability, T/C [10]: 18.7%
- viability, T/C [11]: 15.4%
- viability, T/C [12]: 12.5%
- viability, T/C [13]: 107%
- viability, T/C [14]: 44.9%
- viability, T/C [15]: 34.7%
- viability, T/C [16]: 19.6%
- viability, T/C [17]: 18.1%
- viability, T/C [18]: 9.14%
- viability, T/C [19]: 75.9%
- viability, T/C [20]: 62.8%
- viability, T/C [21]: 29.9%
- viability, T/C [22]: 22.5%
- viability, T/C [23]: 15.3%
- viability, T/C [24]: 9.68%
- viability, T/C [25]: 99.3%
- viability, T/C [26]: 55.3%
- viability, T/C [27]: 28.2%
- viability, T/C [28]: 21.3%
- viability, T/C [29]: 16.1%
- viability, T/C [30]: 11.8%
- viability, T/C [31]: 94.7%
- viability, T/C [32]: 54.4%
- viability, T/C [33]: 29.5%
- viability, T/C [34]: 15.7%
- viability, T/C [35]: 18.7%
- viability, T/C [36]: 10.8%

Compound: CCc1cc2c(N3CCc4c(cc(Cn5ccnc5)cc4-c4cn(C)nc4C(F)(F)F)C3=O)ccnc2c(OC)n1 + Nc1ccc(C#CCN(C(=O)Cc2ncc(C(F)(F)F)cc2C(F)(F)F)c2ccc(F)cc2)nn1
- IC50 (second compound 0.0316 µM): > 10000 nM
- IC50 (second compound 0.1 µM): > 10000 nM
- IC50 (second compound 0.316 µM): > 10000 nM
- IC50 (second compound 1 µM): > 10000 nM
- IC50 (second compound 3.16 µM): > 10000 nM
- IC50 (second compound 10 µM): > 10000 nM
- viability, T/C [1]: 79.9%
- viability, T/C [2]: 57.4%
- viability, T/C [3]: 52.4%
- viability, T/C [4]: 70.4%
- viability, T/C [5]: 59.1%
- viability, T/C [6]: 60.8%
- viability, T/C [7]: 88.2%
- viability, T/C [8]: 68%
- viability, T/C [9]: 64.5%
- viability, T/C [10]: 57.4%
- viability, T/C [11]: 70%
- viability, T/C [12]: 60.7%
- viability, T/C [13]: 88.8%
- viability, T/C [14]: 66%
- viability, T/C [15]: 67.9%
- viability, T/C [16]: 63.5%
- viability, T/C [17]: 63.5%
- viability, T/C [18]: 61.7%
- viability, T/C [19]: 91.2%
- viability, T/C [20]: 67.1%
- viability, T/C [21]: 82.7%
- viability, T/C [22]: 70.5%
- viability, T/C [23]: 59.5%
- viability, T/C [24]: 64.4%
- viability, T/C [25]: 90.6%
- viability, T/C [26]: 97.6%
- viability, T/C [27]: 70.3%
- viability, T/C [28]: 64.6%
- viability, T/C [29]: 72.5%
- viability, T/C [30]: 60.2%
- viability, T/C [31]: 80.7%
- viability, T/C [32]: 82.2%
- viability, T/C [33]: 85.5%
- viability, T/C [34]: 64.3%
- viability, T/C [35]: 56.7%
- viability, T/C [36]: 66.9%

Compound: COc1cc2cc(C(=O)CCC(=O)O)sc2cc1OC + Nc1ccc(C#CCN(C(=O)Cc2ncc(C(F)(F)F)cc2C(F)(F)F)c2ccc(F)cc2)nn1
- IC50 (second compound 0.0316 µM): > 10000 nM
- IC50 (second compound 0.1 µM): > 10000 nM
- IC50 (second compound 0.316 µM): > 10000 nM
- IC50 (second compound 1 µM): > 10000 nM
- IC50 (second compound 3.16 µM): > 10000 nM
- IC50 (second compound 10 µM): > 10000 nM
- viability, T/C [1]: 102%
- viability, T/C [2]: 101%
- viability, T/C [3]: 101%
- viability, T/C [4]: 93.6%
- viability, T/C [5]: 87.7%
- viability, T/C [6]: 84.5%
- viability, T/C [7]: 99%
- viability, T/C [8]: 92%
- viability, T/C [9]: 95.5%
- viability, T/C [10]: 108%
- viability, T/C [11]: 81.7%
- viability, T/C [12]: 87%
- viability, T/C [13]: 108%
- viability, T/C [14]: 102%
- viability, T/C [15]: 89.5%
- viability, T/C [16]: 106%
- viability, T/C [17]: 113%
- viability, T/C [18]: 108%
- viability, T/C [19]: 89.6%
- viability, T/C [20]: 114%
- viability, T/C [21]: 78.4%
- viability, T/C [22]: 81.7%
- viability, T/C [23]: 110%
- viability, T/C [24]: 112%
- viability, T/C [25]: 108%
- viability, T/C [26]: 90.9%
- viability, T/C [27]: 84.1%
- viability, T/C [28]: 105%
- viability, T/C [29]: 103%
- viability, T/C [30]: 81.1%
- viability, T/C [31]: 101%
- viability, T/C [32]: 95.8%
- viability, T/C [33]: 101%
- viability, T/C [34]: 103%
- viability, T/C [35]: 82%
- viability, T/C [36]: 74.5%
